# Patent US4585773A, “Isoindolinyl-alkyl-piperazines” (Bristol-Myers Company, priority 1984, dated 1986)
# Where two headings read alike, the source gives them in different places.
# Tests used:
# [1] = system: Spontaneously Hypertensive rat; experiment: antihypertensive activity, Spontaneously Hypertensive Rat (Table II); assay type: in vivo; conditions: for antihypertensive effect (in words): conclusion from Table II (SHR, and DOCA for Examples I-IV)
# How it was run: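 Conditioned male SHR (300-400 g), prewarmed at 30° C and restrained; systolic blood pressure and heart rate by tail-cuff before and 2, 4 and 24 h after oral dosing in 0.25% Methocel (5 ml/kg). Values are changes from zero-hour readings; peak ΔBP above 20 mm Hg taken as activity.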
# [2] = system: DOCA-salt Hypertensive Rat; experiment: antihypertensive activity, DOCA-salt Hypertensive Rat (Table II); assay type: in vivo; conditions: for ΔBP 4 hours / ΔHR 4 hours: DOCA
# Protocol: DOCA-salt Hypertensive Rat
# Male rats initially weighing 80-100 g, are made hypertensive by surgically implanting two 50 mg pellets of deoxycorticosterone acetate (DOCA) under the skin of the abdomen of each rat and providing 1% saline ad libitum. After three weeks, the 1% saline is replaced with distilled water. One week later, animals are anesthetized with methoxyflurane and a catheter advanced into the aorta via the left common corotid artery to record mean arterial blood pressure (MABP) and heart rate. The heparin-filled catheter is passed beneath the skin and exteriorized behind the head. Two days later, MABP and heart rate are determined before and four hours after oral administration of vehicle (0.25% Methocel in 0.9% saline) or test compound suspended in vehicle at a dose volume equivalent to 5 ml/kg.
# Testing was carried out on the compounds of Examples I-XII for antihypertensive activity. In the case of all the compounds testing was carried out on the Spontaneously Hypertensive rat as described hereinbefore. In the case of the compounds of Examples I-IV testing was also carried out on the DOCA-salt Hypertensive Rat. The compound of Example I was tested as its monochloride 2-propanolate hydrate, i.e. as C22 H27 ClN4 O4 S.HCl.0.2(CH3)2 CHOH.0.15H2 O in Tests 1-5; and as the 3/4 mole hydrochloride, i.e. C22 H27 ClN4 O4 S: 3/4 HCl in Tests 3a, 4a, 5a-5d. Test results are set forth in Table II below wherein SHR stands for Spontaneously Hypertensive rat, DOCA stands for DOCA-salt Hypertensive Rat, ΔBP stands for the change in systolic blood pressure in mm Hg, ΔHR stands for the change in mean heart rate in beats per minute and the times set forth are the times after dosing. A peak change in ΔBP of more than 20 is considered as indicating activity.
# [3] = system: α blocking activity (phenylephrine); experiment: in vivo α blocking activity, phenylephrine (PE) as α-agonist (Table III); parameters: species or system rat; ED50: unit not given beside the values; conditions: for Average Dose Shift: ED50 after/before drug, PE; for in vivo α blocking activity (in words): conclusion from Table III; for ED50: iv
# How it was run: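 Rats received phenylephrine or norepinephrine as α-agonist before and after test drug, given intravenously except oral in Tests 2a, 3, 3a and 26-29. ED50 is the average interpolated agonist dose raising mean arterial pressure by 50 mm Hg; dose shift is the post-drug/pre-drug ED50 ratio.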
# [4] = molecular target: α1; experiment: in vitro α1 binding, [3H]WB-4101 (Table IV); conditions: for IC50: [3H]WB-4101, brain tissue, 50 mM Hepes.KOH, pH 7.4, read-out: α1 Binding IC50
# How it was run: (§1)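 Brain tissue membranes incubated with test compound and radioligand, [3H]WB-4101 for α1 or [3H]Clonidine for α2, in 50 mM Hepes.KOH, pH 7.4. Bound radioligand separated and counted. IC50 for 50% inhibition of specific binding obtained by linear regression of probit binding against compound concentration.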
# [5] = system: α2; experiment: in vitro α2 binding, [3H]Clonidine (Table IV); conditions: for IC50: [3H]Clonidine, brain tissue, 50 mM Hepes.KOH, pH 7.4, read-out: α2 Binding IC50
# How it was run: as §1
# [6] = SHR, 3.0 mg/kg oral, as 3/4 mole hydrochloride
# [7] = SHR, 30 mg/kg oral, as 3/4 mole hydrochloride
# [8] = SHR, 3.0 to 30 mg/kg body weight
# [9] = 0.3 mg/kg oral, as 3/4 mole hydrochloride
# [10] = 3.0 mg/kg oral, as 3/4 mole hydrochloride
# [11] = 30 mg/kg oral, as 3/4 mole hydrochloride
# [12] = 100 mg/kg oral, as 3/4 mole hydrochloride
structure (smiles),measurement,setting,value
"COc1ccccc1N1CCN(CCCN2Cc3cc(Cl)c(S(N)(=O)=O)cc3C2=O)CC1 [Example I, 6-chloro-2,3-dihydro-2-[3-[4-(2-methoxyphenyl)-1-piperazinyl]propyl]-3-oxo-1H-isoindole-5-sulfonamide]",ΔBP 4 hours,"[1]; SHR, 0.3 mg/kg oral",-18 ± 6 mm Hg
same,ΔHR 4 hours,"[1]; SHR, 0.3 mg/kg oral",11 ± 3 beats per minute
same,ΔBP 4 hours,"[1]; SHR, 3.0 mg/kg oral",-43 ± 7 mm Hg
same,ΔHR 4 hours,"[1]; SHR, 3.0 mg/kg oral",10 ± 15 beats per minute
same,ΔBP 2 hours,[1]; [6],-23 ± 8 mm Hg
same,ΔBP 4 hours,[1]; [6],-10 ± 5 mm Hg
same,ΔHR 2 hours,[1]; [6],8 ± 10 beats per minute
same,ΔHR 4 hours,[1]; [6],14 ± 18 beats per minute
same,ΔBP 2 hours,"[1]; SHR, 30 mg/kg oral",-84 ± 10 mm Hg
same,ΔHR 2 hours,"[1]; SHR, 30 mg/kg oral",16 ± 15 beats per minute
same,ΔBP 2 hours,[1]; [7],-97 ± 10 mm Hg
same,ΔBP 4 hours,[1]; [7],-52 ± 13 mm Hg
same,ΔHR 2 hours,[1]; [7],16 ± 8 beats per minute
same,ΔHR 4 hours,[1]; [7],2 ± 9 beats per minute
same,systolic blood pressure / antihypertensive activity (in words),[1]; [8],dose-dependent decrease in systolic blood pressure
same,time at which antihypertensive effect seen,[1]; [8],about two
same,antihypertensive effect (in words),[1],good antihypertensive effect without significantly affecting heart rate
same,antihypertensive activity (in words),[2]; DOCA-hypertensive rat,demonstrates activity in the DOCA-hypertensive rat
same,ΔBP 4 hours,[2]; [9],-14 ± 5 mm Hg
same,ΔHR 4 hours,[2]; [9],-8 ± 20 beats per minute
same,ΔBP 4 hours,[2]; [10],-15 ± 6 mm Hg
same,ΔHR 4 hours,[2]; [10],-6 ± 24 beats per minute
same,ΔBP 4 hours,[2]; 30 mg/kg oral,-49 ± 9 mm Hg
same,ΔHR 4 hours,[2]; 30 mg/kg oral,59 ± 28 beats per minute
same,ΔBP 4 hours,[2]; [11],-53 ± 9 mm Hg
same,ΔHR 4 hours,[2]; [11],53 ± 26 beats per minute
same,ΔBP 4 hours,[2]; [12],-75 ± 3 mm Hg
same,ΔHR 4 hours,[2]; [12],23 ± 32 beats per minute
same,Average Dose Shift,"[3]; dose 30, oral",33 ± 11
same,in vivo α blocking activity (in words),[3],active as in vivo α blockers
same,ED50,[3],161.8
same,IC50,[4],1.48 nM
same,α1 binding activity (in words),[4]; listed as MJ 15037,demonstrates activity in binding both α1 and α2 sites
same,α2 binding activity (in words),[5],α2 binding activity
same,IC50,[5],555 nM
same,α2 binding activity (in words),[5]; listed as MJ 15037,demonstrates activity in binding both α1 and α2 sites
"COc1ccccc1N1CCN(CCN2Cc3cc(Cl)c(S(N)(=O)=O)cc3C2=O)CC1 [Example III, 6-Chloro-2,3-dihydro-2-[2-[4-(2-methoxyphenyl)-1-piperazinyl]ethyl]-3-oxo-1H-isoindole-5-sulfonamide]",ΔBP 2 hours,"[1]; SHR, 30 mg/kg oral",-47 ± 14 mm Hg
same,ΔBP 4 hours,"[1]; SHR, 30 mg/kg oral",-69 ± 20 mm Hg
same,ΔHR 2 hours,"[1]; SHR, 30 mg/kg oral",10 ± 3 beats per minute
same,ΔHR 4 hours,"[1]; SHR, 30 mg/kg oral",10 ± 10 beats per minute
same,antihypertensive effect (in words),[1],good antihypertensive effect without significantly affecting heart rate
same,ΔBP 4 hours,[2]; 30 mg/kg oral,-62 ± 13 mm Hg
same,ΔHR 4 hours,[2]; 30 mg/kg oral,63 ± 32 beats per minute
same,Average Dose Shift,"[3]; dose 10, intravenous",dose too high
same,in vivo α blocking activity (in words),[3],active as in vivo α blockers
same,ED50,[3],41.0
same,IC50,[4],23.4 nM
same,α2 binding activity (in words),[5],α2 binding activity
same,IC50,[5],806 nM
